Assay results from US8809367B2, “1-1-Oxo-1,2,3,4-tetrahydroisoquinolin-7-yl)urea derivatives as N-formyl peptide receptor like-1 (FPRL-1) receptor modulators” (Allergan, Inc., priority 2011, dated 2014).

Molecular target: T1, FPRL-1 (Homo sapiens, UniProt P25090)
T1 construct: expressed in transfected cells
T1 sequence (P25090 1-351): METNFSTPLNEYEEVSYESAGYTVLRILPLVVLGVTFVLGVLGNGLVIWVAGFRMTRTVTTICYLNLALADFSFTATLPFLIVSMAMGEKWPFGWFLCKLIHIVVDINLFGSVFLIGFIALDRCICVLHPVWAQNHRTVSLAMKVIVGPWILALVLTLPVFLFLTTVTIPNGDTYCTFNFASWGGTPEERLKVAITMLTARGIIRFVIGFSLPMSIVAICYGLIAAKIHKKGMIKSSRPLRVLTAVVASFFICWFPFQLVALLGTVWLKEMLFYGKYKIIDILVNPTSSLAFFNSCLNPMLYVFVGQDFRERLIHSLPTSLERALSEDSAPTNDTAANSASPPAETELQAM
Assay: compound-induced calcium activity on FLIPR Tetra in CHO-Ga16 cells stably expressing FPRL1
Format: cell-based
Conditions: for FPRL-1 Ga16-CHO (eff): efficacy value in brackets under EC50; for EC50: tested at 0.61 to 10,000 nM
Protocol: CHO-Ga16 cells stably expressing FPRL1 were cultured in (F12, 10% FBS, 1% PSA, 400 μg/ml geneticin and 50 μg/ml hygromycin) and HEK-Gqi5 cells stable expressing FPR1 were cultured in (DMEM high glucose, 10% FBS, 1% PSA, 400 μg/ml geneticin and 50 μg/ml hygromycin). In general, the day before the experiment, 18,000 cells/well were plated in a 384-well clear bottom poly-d-lysine coated plate. The following day the screening compound-induced calcium activity was assayed on the FLIPR^Tetra. The drug plates were prepared in 384-well microplates using the EP3 and the MultiPROBE robotic liquid handling systems. Compounds were tested at concentrations ranging from 0.61 to 10,000 nM. Results are expressed as EC50 (nM) and efficacy values.

Row | Structure (SMILES) | FPRL-1 Ga16-CHO (eff) | EC50 [nM]
1 | CC(=O)c1ccc(NC(=O)Nc2ccc3c(c2)C(=O)N(CCCN)C(c2ccc(C#N)cc2)C3)cc1 (stereo not drawn) [Compound 1, 1-(4-acetylphenyl)-3-[2-(3-aminopropyl)-3-(4-cyanophenyl)-1-oxo-1,2,3,4-tetrahydroisoquinolin-7-yl]urea] | (1.00) | 40
2 | CC(=O)c1ccc(NC(=O)Nc2ccc3c(c2)C(=O)N(CCN)C(c2ccc(C#N)cc2)C3)cc1 (stereo not drawn) [Compound 2, 1-(4-acetylphenyl)-3-[2-(2-aminoethyl)-3-(4-cyanophenyl)-1-oxo-1,2,3,4-tetrahydroisoquinolin-7-yl]urea] | (0.90) | 34
3 | CNCCN1C(=O)c2cc(NC(=O)Nc3ccc(C(C)=O)cc3)ccc2CC1c1ccc(C#N)cc1 (stereo not drawn) [Compound 3, 1-(4-acetylphenyl)-3-{3-(4-cyanophenyl)-2-[2-(methylamino)ethyl]-1-oxo-1,2,3,4-tetrahydroisoquinolin-7-yl}urea] | (1.00) | 32
4 | N#Cc1ccc(C2Cc3ccc(NC(=O)Nc4ccc(Br)cc4)cc3C(=O)N2CCCN)cc1 (stereo not drawn) [Compound 6, 1-[2-(3-aminopropyl)-3-(4-cyanophenyl)-1-oxo-1,2,3,4-tetrahydroisoquinolin-7-yl]-3-(4-bromophenyl)urea] | (1.00) | 31
5 | C[S+]([O-])c1ccc(NC(=O)Nc2ccc3c(c2)C(=O)N(CCCN)C(c2ccc(C#N)cc2)C3)cc1 (stereo not drawn) [Compound 7, 1-[2-(3-aminopropyl)-3-(4-cyanophenyl)-1-oxo-1,2,3,4-tetrahydroisoquinolin-7-yl]-3-[4-(methylsulfinyl)phenyl]urea] | (0.92) | 
6 | CSc1ccc(NC(=O)Nc2ccc3c(c2)C(=O)N(CCCN)[C@H](c2ccc(C#N)cc2)C3)cc1 [Compound 10, (S)-1-[2-(3-aminopropyl)-3-(4-cyanophenyl)-1-oxo-1,2,3,4-tetrahydroisoquinolin-7-yl]-3-[4-(methylthio)phenyl]urea] | (1.0) | 299
7 | CS(=O)(=O)c1ccc(NC(=O)Nc2ccc3c(c2)C(=O)N(CCCN)[C@H](c2ccc(C#N)cc2)C3)cc1 [Compound 14, (S)-1-[2-(3-aminopropyl)-3-(4-cyanophenyl)-1-oxo-1,2,3,4-tetrahydroisoquinolin-7-yl]-3-[4-(methylsulfonyl)phenyl]urea] | (1.3) | 
8 | CS(=O)(=O)c1ccc(NC(=O)Nc2ccc3c(c2)C(=O)N(CCCN)[C@@H](c2ccc(C#N)cc2)C3)cc1 [Compound 15, (R)-1-[2-(3-aminopropyl)-3-(4-cyanophenyl)-1-oxo-1,2,3,4-tetrahydroisoquinolin-7-yl]-3-[4-(methylsulfonyl)phenyl]urea] | (0.90) | 29
9 | CC1Cc2ccc(NC(=O)Nc3ccc(S(C)(=O)=O)cc3)cc2C(=O)N1CCCN (stereo not drawn) [Compound 17, 1-[2-(3-aminopropyl)-3-methyl-1-oxo-1,2,3,4-tetrahydroisoquinolin-7-yl]-3-[4-(methylsulfonyl)phenyl]urea] | (88) | 150
10 | N#Cc1ccc(C2Cc3ccc(NC(=O)Nc4ccc(C(F)(F)F)cc4)cc3C(=O)N2CCc2c[nH]cn2)cc1 (stereo not drawn) [Compound 19, 1-{3-(4-cyanophenyl)-2-[2-(1H-imidazol-4-yl)ethyl]-1-oxo-1,2,3,4-tetrahydroisoquinolin-7-yl}-3-[4-(trifluoromethyl)phenyl]urea] | (0.78) | 32
11 | CC(=O)c1ccc(NC(=O)Nc2ccc3c(c2)C(=O)N(CCc2c[nH]cn2)C(c2ccc(Cl)c(Cl)c2)C3)cc1 (stereo not drawn) [Compound 20, 1-(4-acetylphenyl)-3-{3-(3,4-dichlorophenyl)-2-[2-(1H-imidazol-4-yl)ethyl]-1-oxo-1,2,3,4-tetrahydroisoquinolin-7-yl}urea] | (1.04) | 28

Now from value to molecule:

Row | FPRL-1 Ga16-CHO (eff) | EC50 [nM] | Structure (SMILES)
12 | (0.78) | 21 | N#Cc1ccc(C2Cc3ccc(NC(=O)Nc4ccc(C(F)(F)F)cc4)cc3C(=O)N2CCCN)cc1 (stereo not drawn) [Compound 4, 1-[2-(3-aminopropyl)-3-(4-cyanophenyl)-1-oxo-1,2,3,4-tetrahydroisoquinolin-7-yl]-3-[4-(trifluoromethyl)phenyl]urea]
13 | (0.70) | 2.5 | CSc1ccc(NC(=O)Nc2ccc3c(c2)C(=O)N(CCCN)C(c2ccc(C#N)cc2)C3)cc1 (stereo not drawn) [Compound 5, 1-[2-(3-aminopropyl)-3-(4-cyanophenyl)-1-oxo-1,2,3,4-tetrahydroisoquinolin-7-yl]-3-[4-(methylthio)phenyl]urea]
14 | (0.86) | 10 | CS(=O)(=O)c1ccc(NC(=O)Nc2ccc3c(c2)C(=O)N(CCCN)C(c2ccc(C#N)cc2)C3)cc1 (stereo not drawn) [Compound 8, 1-[2-(3-aminopropyl)-3-(4-cyanophenyl)-1-oxo-1,2,3,4-tetrahydroisoquinolin-7-yl]-3-[4-(methylsulfonyl)phenyl]urea]
15 | (1.0) | 23 | CCSc1ccc(NC(=O)Nc2ccc3c(c2)C(=O)N(CCCN)C(c2ccc(C#N)cc2)C3)cc1 (stereo not drawn) [Compound 9, 1-[2-(3-aminopropyl)-3-(4-cyanophenyl)-1-oxo-1,2,3,4-tetrahydroisoquinolin-7-yl]-3-[4-(ethylthio)phenyl]urea]
16 | (0.97) | 3.3 | CSc1ccc(NC(=O)Nc2ccc3c(c2)C(=O)N(CCCN)[C@@H](c2ccc(C#N)cc2)C3)cc1 [Compound 11, (R)-1-[2-(3-aminopropyl)-3-(4-cyanophenyl)-1-oxo-1,2,3,4-tetrahydroisoquinolin-7-yl]-3-[4-(methylthio)phenyl]urea]
17 | (0.89) | 15 | CSc1ccc(NC(=O)Nc2ccc3c(c2)C(=O)N(CCCN)C(C)C3)cc1 (stereo not drawn) [Compound 16, 1-[2-(3-aminopropyl)-3-methyl-1-oxo-1,2,3,4-tetrahydroisoquinolin-7-yl]-3-[4-(methylthio)phenyl]urea]
18 | (0.80) | 11 | CC(=O)c1ccc(NC(=O)Nc2ccc3c(c2)C(=O)N(CCc2c[nH]cn2)C(c2ccc(C#N)cc2)C3)cc1 (stereo not drawn) [Compound 18, 1-(4-acetylphenyl)-3-{3-(4-cyanophenyl)-2-[2-(1H-imidazol-4-yl)ethyl]-1-oxo-1,2,3,4-tetrahydroisoquinolin-7-yl}urea]
19 | (0.83) | 19 | CSc1ccc(NC(=O)Nc2ccc3c(c2)C(=O)N(CCc2c[nH]cn2)C(c2ccco2)C3)cc1 (stereo not drawn) [Compound 23, 1-{3-(2-furyl)-2-[2-(1H-imidazol-4-yl)ethyl]-1-oxo-1,2,3,4-tetrahydroisoquinolin-7-yl}-3-[4-(methylthio)phenyl]urea]
20 | (0.81) | 17 | CSc1ccc(NC(=O)Nc2ccc3c(c2)C(=O)N(CCc2c[nH]cn2)C(c2ccc(Cl)o2)C3)cc1 (stereo not drawn) [Compound 24, 1-{3-(5-chloro-2-furyl)-2-[2-(1H-imidazol-4-yl)ethyl]-1-oxo-1,2,3,4-tetrahydroisoquinolin-7-yl}-3-[4-(methylthio)phenyl]urea]
21 | (0.81) | 24 | CC(=O)c1ccc(NC(=O)Nc2ccc3c(c2)C(=O)N(CCc2c[nH]cn2)C(c2ccc(Cl)nc2)C3)cc1 (stereo not drawn) [Compound 25, 1-(4-acetylphenyl)-3-{3-(6-chloropyridin-3-yl)-2-[2-(1H-imidazol-4-yl)ethyl]-1-oxo-1,2,3,4-tetrahydroisoquinolin-7-yl}urea]
22 | (0.89) | 6.3 | CSc1ccc(NC(=O)Nc2ccc3c(c2)C(=O)N(CCc2c[nH]cn2)C(c2ccc(Cl)nc2)C3)cc1 (stereo not drawn) [Compound 26, 1-{3-(6-chloropyridin-3-yl)-2-[2-(1H-imidazol-4-yl)ethyl]-1-oxo-1,2,3,4-tetrahydroisoquinolin-7-yl}-3-[4-(methylthio)phenyl]urea]
23 | (0.91) | 13.5 | CSc1ccc(NC(=O)Nc2ccc3c(c2)C(=O)N(CCc2c[nH]cn2)C(c2ccc(Cl)cn2)C3)cc1 (stereo not drawn) [Compound 28, 1-{3-(5-chloropyridin-2-yl)-2-[2-(1H-imidazol-4-yl)ethyl]-1-oxo-1,2,3,4-tetrahydroisoquinolin-7-yl}-3-[4-(methylthio)phenyl]urea]
24 | (0.96) | 22 | C[S+]([O-])c1ccc(NC(=O)Nc2ccc3c(c2)C(=O)N(CCc2c[nH]cn2)C(c2ccc(C#N)cc2)C3)cc1 (stereo not drawn) [Compound 29, 1-{3-(4-cyanophenyl)-2-[2-(1H-imidazol-4-yl)ethyl]-1-oxo-1,2,3,4-tetrahydroisoquinolin-7-yl}-3-[4-(methylsulfinyl)phenyl]urea]
25 | (1.00) | 20 | CS(=O)(=O)c1ccc(NC(=O)Nc2ccc3c(c2)C(=O)N(CCc2c[nH]cn2)C(c2ccc(C#N)cc2)C3)cc1 (stereo not drawn) [Compound 30, 1-{3-(4-cyanophenyl)-2-[2-(1H-imidazol-4-yl)ethyl]-1-oxo-1,2,3,4-tetrahydroisoquinolin-7-yl}-3-[4-(methylsulfonyl)phenyl]urea]
